Nine compounds from ChEMBL document CHEMBL3608278 (J Med Chem, 2015) can be followed below.

Molecules are shown by their SMILES.

Assay [1] addresses T1, Potassium voltage-gated channel subfamily A member 3 (Homo sapiens, UniProt P22001). On the set-up: species or system Blood.
Assay [2] deals with T1, Potassium voltage-gated channel subfamily A member 3. Kind of assay: cell-based. Also noted: species or system Blood.

T1 sequence (P22001 whole entry): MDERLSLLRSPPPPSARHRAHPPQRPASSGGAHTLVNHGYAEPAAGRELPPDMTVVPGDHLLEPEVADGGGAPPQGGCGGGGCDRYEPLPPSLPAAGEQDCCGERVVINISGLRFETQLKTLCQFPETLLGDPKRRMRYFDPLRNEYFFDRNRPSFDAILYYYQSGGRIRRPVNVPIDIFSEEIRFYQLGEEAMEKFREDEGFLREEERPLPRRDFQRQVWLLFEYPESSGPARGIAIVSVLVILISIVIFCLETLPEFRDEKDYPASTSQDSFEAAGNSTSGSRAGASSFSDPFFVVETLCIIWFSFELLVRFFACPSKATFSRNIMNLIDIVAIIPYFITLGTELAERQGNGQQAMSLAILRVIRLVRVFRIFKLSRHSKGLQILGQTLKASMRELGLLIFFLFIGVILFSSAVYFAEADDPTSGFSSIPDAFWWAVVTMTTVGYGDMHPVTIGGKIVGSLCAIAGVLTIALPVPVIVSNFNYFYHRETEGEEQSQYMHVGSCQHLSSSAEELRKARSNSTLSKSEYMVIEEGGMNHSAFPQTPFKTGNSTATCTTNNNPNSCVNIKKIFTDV

A word on the IC50: it is the midpoint of a concentration-inhibition curve. For the compound `CC[C@H](C)[C@@H]1NC(=O)[C@@H](NC(=O)[C@H](CO)NC(=O)[C@@H](N)CCCNC(=N)N)CSSC[C@@H](C(=O)O)NC(=O)[C@H]([C@@H](C)O)NC(=O)CNC(=O)[C@@H]2CSSC[C@@H]3NC(=O)[C@H](CCC(N)=O)NC(=O)[C@H](Cc4ccccc4)NC(=O)[C@H](C)NC(=O)[C@H]([C@@H](C)O)NC(=O)[C@H](CSSC[C@H](NC(=O)[C@H](Cc4ccccc4)NC(=O)[C@H](CO)NC(=O)[C@H](CC(C)C)NC(=O)[C@H](CCCNC(=N)N)NC(=O)[C@H](Cc4ccc(O)cc4)NC(=O)[C@H](CCCCN)NC(=O)[C@H](CCSC)NC(=O)[C@H](CO)NC(=O)[C@H](Cc4cnc[nH]4)NC(=O)[C@H](CCCCN)NC3=O)C(=O)N[C@@H](CCCNC(=N)N)C(=O)N[C@@H](CCCCN)C(=O)N[C@@H]([C@@H](C)O)C(=O)N2)NC(=O)[C@H](CCCNC(=N)N)NC(=O)[C@H](CO)NC(=O)[C@H](CCCCN)NC(=O)[C@@H]2CCCN2C(=O)[C@H](CCCNC(=N)N)NC(=O)[C@H]([C@@H](C)O)NC(=O)[C@H](CC(=O)O)NC1=O`, the concentration for half-maximal inhibition (IC50) was determined as 10.1 nM in assay [1] and 6.56 nM in assay [2].
Turning to `CC[C@H](C)[C@@H]1NC(=O)[C@@H](NC(=O)[C@H](CO)NC(=O)[C@@H](N)CCCNC(=N)N)CSSC[C@@H](C(=O)O)NC(=O)[C@H]([C@@H](C)O)NC(=O)CNC(=O)[C@@H]2CSSC[C@@H]3NC(=O)[C@H](CCC(N)=O)NC(=O)[C@H](Cc4ccccc4)NC(=O)[C@H](C)NC(=O)[C@H]([C@@H](C)O)NC(=O)[C@H](CSSC[C@H](NC(=O)[C@H](Cc4ccccc4)NC(=O)[C@H](CCC(=O)O)NC(=O)[C@H](CC(C)C)NC(=O)[C@H](CCCNC(=N)N)NC(=O)[C@H](Cc4ccc(O)cc4)NC(=O)[C@H](CCCCN)NC(=O)[C@H](CCSC)NC(=O)[C@H](CO)NC(=O)[C@H](Cc4cnc[nH]4)NC(=O)[C@H](CCCCN)NC3=O)C(=O)N[C@@H](CCCNC(=N)N)C(=O)N[C@@H](CCCCN)C(=O)N[C@@H]([C@@H](C)O)C(=O)N2)NC(=O)[C@H](CCCNC(=N)N)NC(=O)[C@H](CO)NC(=O)[C@H](CCCCN)NC(=O)[C@@H]2CCCN2C(=O)[C@H]([C@@H](C)CC)NC(=O)[C@H]([C@@H](C)O)NC(=O)[C@H](CC(=O)O)NC1=O`, the IC50 in assay [1] was found to be 0.4 nM; in assay [2], 0.202 nM.
Taken in the same sequence, the figures for `CC[C@H](C)[C@@H]1NC(=O)[C@@H](NC(=O)[C@H](CO)NC(=O)[C@@H](N)CCCNC(=N)N)CSSC[C@@H](C(=O)O)NC(=O)[C@H]([C@@H](C)O)NC(=O)CNC(=O)[C@@H]2CSSC[C@@H]3NC(=O)[C@H](CCC(N)=O)NC(=O)[C@H](Cc4ccccc4)NC(=O)[C@H](C)NC(=O)[C@H]([C@@H](C)O)NC(=O)[C@H](CSSC[C@H](NC(=O)[C@H](Cc4ccccc4)NC(=O)[C@H](CO)NC(=O)[C@H](CC(C)C)NC(=O)[C@H](CCCNC(=N)N)NC(=O)[C@H](Cc4ccc(O)cc4)NC(=O)[C@H](CCCCN)NC(=O)[C@H](CCSC)NC(=O)[C@H](CO)NC(=O)[C@H](Cc4cnc[nH]4)NC(=O)[C@H](CCCCN)NC3=O)C(=O)N[C@@H](CCC(=O)O)C(=O)N[C@@H](CCCCN)C(=O)N[C@@H]([C@@H](C)O)C(=O)N2)NC(=O)[C@H](CCCNC(=N)N)NC(=O)[C@H](CO)NC(=O)[C@H](CCCCN)NC(=O)[C@@H]2CCCN2C(=O)[C@H]([C@@H](C)CC)NC(=O)[C@H]([C@@H](C)O)NC(=O)[C@H](CC(=O)O)NC1=O` were 1.96 nM and 0.73 nM.
For `CC[C@H](C)[C@@H]1NC(=O)[C@@H](NC(=O)[C@H](CCCNC(=N)N)NC(=O)[C@@H](N)CCCNC(=N)N)CSSC[C@@H](C(=O)O)NC(=O)[C@H]([C@@H](C)O)NC(=O)CNC(=O)[C@@H]2CSSC[C@@H]3NC(=O)[C@H](CCC(N)=O)NC(=O)[C@H](Cc4ccccc4)NC(=O)[C@H](C)NC(=O)[C@H]([C@@H](C)O)NC(=O)[C@H](CSSC[C@H](NC(=O)[C@H](Cc4ccccc4)NC(=O)[C@H](CO)NC(=O)[C@H](CC(C)C)NC(=O)[C@H](CCCNC(=N)N)NC(=O)[C@H](Cc4ccc(O)cc4)NC(=O)[C@H](CCCCN)NC(=O)[C@H](CCSC)NC(=O)[C@H](CO)NC(=O)[C@H](Cc4cnc[nH]4)NC(=O)[C@H](CCCCN)NC3=O)C(=O)N[C@@H](CCCNC(=N)N)C(=O)N[C@@H](CCCCN)C(=O)N[C@@H]([C@@H](C)O)C(=O)N2)NC(=O)[C@H](CCCNC(=N)N)NC(=O)[C@H](CO)NC(=O)[C@H](CCCCN)NC(=O)[C@@H]2CCCN2C(=O)[C@H]([C@@H](C)CC)NC(=O)[C@H]([C@@H](C)O)NC(=O)[C@H](CC(=O)O)NC1=O`, the values for the IC50 in assay [1] and in assay [2] were 0.116 nM and 0.087 nM, respectively.
Regarding `CC[C@H](C)[C@@H]1NC(=O)[C@H]([C@@H](C)O)NC(=O)[C@H](CC(=O)O)NC(=O)[C@H](CCCNC(=N)N)NC(=O)[C@@H](NC(=O)[C@H](CO)NC(=O)[C@@H](N)CCCNC(=N)N)CSSC[C@@H](C(=O)O)NC(=O)[C@H]([C@@H](C)O)NC(=O)CNC(=O)[C@@H]2CSSC[C@@H]3NC(=O)[C@H](CCC(N)=O)NC(=O)[C@H](Cc4ccccc4)NC(=O)[C@H](C)NC(=O)[C@H]([C@@H](C)O)NC(=O)[C@H](CSSC[C@H](NC(=O)[C@H](Cc4ccccc4)NC(=O)[C@H](CO)NC(=O)[C@H](CC(C)C)NC(=O)[C@H](CCCNC(=N)N)NC(=O)[C@H](Cc4ccc(O)cc4)NC(=O)[C@H](CCCCN)NC(=O)[C@H](CCSC)NC(=O)[C@H](CO)NC(=O)[C@H](Cc4cnc[nH]4)NC(=O)[C@H](CCCCN)NC3=O)C(=O)N[C@@H](CCCNC(=N)N)C(=O)N[C@@H](CCCCN)C(=O)N[C@@H]([C@@H](C)O)C(=O)N2)NC(=O)[C@H](CCCNC(=N)N)NC(=O)[C@H](CO)NC(=O)[C@H](CCCCN)NC(=O)[C@@H]2CCCN2C1=O`, the figures for the IC50 in assay [1] and in assay [2] were 0.123 nM and 0.098 nM, respectively.
As to `CC[C@H](C)[C@@H]1NC(=O)[C@@H](NC(=O)[C@H](CO)NC(=O)[C@@H](N)CCCNC(=N)N)CSSC[C@@H](C(=O)O)NC(=O)[C@H]([C@@H](C)O)NC(=O)CNC(=O)[C@@H]2CSSC[C@@H]3NC(=O)[C@H](CCC(N)=O)NC(=O)[C@H](Cc4ccccc4)NC(=O)[C@H](C)NC(=O)[C@H]([C@@H](C)O)NC(=O)[C@H](CSSC[C@H](NC(=O)[C@H](Cc4ccccc4)NC(=O)[C@H](CO)NC(=O)[C@H](CC(C)C)NC(=O)[C@H](CCCNC(=N)N)NC(=O)[C@H](Cc4ccc(O)cc4)NC(=O)[C@H](CCCCN)NC(=O)[C@H](CCSC)NC(=O)[C@H](CO)NC(=O)[C@H](Cc4c[nH]cn4)NC(=O)[C@H](CCCCN)NC3=O)C(=O)N[C@@H](CCCNC(=N)N)C(=O)N[C@@H](CCCCN)C(=O)N[C@@H]([C@@H](C)O)C(=O)N2)NC(=O)[C@H](CCCNC(=N)N)NC(=O)[C@H](CO)NC(=O)[C@H](CCCCN)NC(=O)[C@@H]2CCCN2C(=O)[C@H]([C@@H](C)CC)NC(=O)[C@H](CCCNC(=N)N)NC(=O)[C@H](CC(=O)O)NC1=O`, the IC50 in assay [1] came to 0.304 nM; in assay [2], 0.215 nM.
Take `CC[C@H](C)[C@@H]1NC(=O)[C@@H](NC(=O)[C@H](CO)NC(=O)[C@@H](N)CCCNC(=N)N)CSSC[C@@H](C(=O)O)NC(=O)[C@H]([C@@H](C)O)NC(=O)CNC(=O)[C@@H]2CSSC[C@@H]3NC(=O)[C@H](CCC(N)=O)NC(=O)[C@H](Cc4ccccc4)NC(=O)[C@H](C)NC(=O)[C@H]([C@@H](C)O)NC(=O)[C@H](CSSC[C@H](NC(=O)[C@H](Cc4ccccc4)NC(=O)[C@H](CO)NC(=O)[C@H](CC(C)C)NC(=O)[C@H](CCCNC(=N)N)NC(=O)[C@H](Cc4ccc(O)cc4)NC(=O)[C@H](CCCCN)NC(=O)[C@H](CCSC)NC(=O)[C@H](CO)NC(=O)[C@H](Cc4cnc[nH]4)NC(=O)[C@H](CCCCN)NC3=O)C(=O)N[C@@H](CCCNC(=N)N)C(=O)N[C@@H](Cc3cccc4ccccc34)C(=O)N[C@@H]([C@@H](C)O)C(=O)N2)NC(=O)[C@H](CCCNC(=N)N)NC(=O)[C@H](CO)NC(=O)[C@H](CCCCN)NC(=O)[C@@H]2CCCN2C(=O)[C@H]([C@@H](C)CC)NC(=O)[C@H]([C@@H](C)O)NC(=O)[C@H](CC(=O)O)NC1=O`: the IC50 in assay [1] was determined as 0.148 nM; in assay [2], 0.082 nM.
For the compound `CC[C@H](C)[C@@H]1NC(=O)[C@@H](NC(=O)[C@H](CO)NC(=O)[C@@H](N)CCCNC(=N)N)CSSC[C@@H](C(=O)O)NC(=O)[C@H]([C@@H](C)O)NC(=O)CNC(=O)[C@@H]2CSSC[C@@H]3NC(=O)[C@H](CCC(N)=O)NC(=O)[C@H](Cc4ccccc4)NC(=O)[C@H](C)NC(=O)[C@H]([C@@H](C)O)NC(=O)[C@H](CSSC[C@H](NC(=O)[C@H](Cc4ccccc4)NC(=O)[C@H](CO)NC(=O)[C@H](CC(C)C)NC(=O)[C@H](CCCNC(=N)N)NC(=O)[C@H](Cc4ccc(O)cc4)NC(=O)[C@H](CCCCN)NC(=O)[C@H](CCSC)NC(=O)[C@H](CO)NC(=O)[C@H](Cc4c[nH]cn4)NC(=O)[C@H](CCCCN)NC3=O)C(=O)N[C@@H](CCCNC(=N)N)C(=O)N[C@@H](CCCCN)C(=O)N[C@@H]([C@@H](C)O)C(=O)N2)NC(=O)[C@H](CCCNC(=N)N)NC(=O)[C@H](CO)NC(=O)[C@H](CCCCN)NC(=O)[C@@H]2CCCN2C(=O)[C@H]([C@@H](C)CC)NC(=O)[C@H](CCC(=O)O)NC(=O)[C@H](CC(=O)O)NC1=O`, the figures for the IC50 in assay [1] and in assay [2] were 0.109 nM and 0.074 nM, respectively.
For `CC[C@H](C)[C@@H]1NC(=O)[C@@H](NC(=O)[C@H](CO)NC(=O)[C@@H](N)CCCNC(=N)N)CSSC[C@@H](C(=O)O)NC(=O)[C@H]([C@@H](C)O)NC(=O)CNC(=O)[C@@H]2CSSC[C@@H]3NC(=O)[C@H](CCC(N)=O)NC(=O)[C@H](Cc4ccccc4)NC(=O)[C@H](C)NC(=O)[C@H]([C@@H](C)O)NC(=O)[C@H](CSSC[C@H](NC(=O)[C@H](Cc4ccccc4)NC(=O)[C@H](CO)NC(=O)[C@H](CC(C)C)NC(=O)[C@H](CCCNC(=N)N)NC(=O)[C@H](Cc4ccc(O)cc4)NC(=O)[C@H](CCCCN)NC(=O)[C@H](CCSC)NC(=O)[C@H](CO)NC(=O)[C@H](Cc4cnc[nH]4)NC(=O)[C@H](CCCCN)NC3=O)C(=O)N[C@@H](CCCNC(=N)N)C(=O)N[C@@H](CCCCN)C(=O)N[C@@H]([C@@H](C)O)C(=O)N2)NC(=O)[C@H](CCCNC(=N)N)NC(=O)[C@H](CCC(=O)O)NC(=O)[C@H](CCCCN)NC(=O)[C@@H]2CCCN2C(=O)[C@H]([C@@H](C)CC)NC(=O)[C@H]([C@@H](C)O)NC(=O)[C@H](CC(=O)O)NC1=O`, the IC50 in assay [1] was 0.055 nM; in assay [2] it was 0.023 nM.
